The text below walks through data of patent US20060063759A1, “Tricyclic steroid hormone nuclear receptor modulators” (priority 2002, published 2006).

One assay has as its target T1, human MR (Homo sapiens, UniProt P08235).
T1 construct: The full length human MR gene is cloned from a human kidney or human brain cDNA library; His tag from the pAcHLT vector (own knowledge); made in house; host or cells: Sf9 insect cells (baculovirus, pAcHLT transfer vector)
T1 sequence (P08235 1-984): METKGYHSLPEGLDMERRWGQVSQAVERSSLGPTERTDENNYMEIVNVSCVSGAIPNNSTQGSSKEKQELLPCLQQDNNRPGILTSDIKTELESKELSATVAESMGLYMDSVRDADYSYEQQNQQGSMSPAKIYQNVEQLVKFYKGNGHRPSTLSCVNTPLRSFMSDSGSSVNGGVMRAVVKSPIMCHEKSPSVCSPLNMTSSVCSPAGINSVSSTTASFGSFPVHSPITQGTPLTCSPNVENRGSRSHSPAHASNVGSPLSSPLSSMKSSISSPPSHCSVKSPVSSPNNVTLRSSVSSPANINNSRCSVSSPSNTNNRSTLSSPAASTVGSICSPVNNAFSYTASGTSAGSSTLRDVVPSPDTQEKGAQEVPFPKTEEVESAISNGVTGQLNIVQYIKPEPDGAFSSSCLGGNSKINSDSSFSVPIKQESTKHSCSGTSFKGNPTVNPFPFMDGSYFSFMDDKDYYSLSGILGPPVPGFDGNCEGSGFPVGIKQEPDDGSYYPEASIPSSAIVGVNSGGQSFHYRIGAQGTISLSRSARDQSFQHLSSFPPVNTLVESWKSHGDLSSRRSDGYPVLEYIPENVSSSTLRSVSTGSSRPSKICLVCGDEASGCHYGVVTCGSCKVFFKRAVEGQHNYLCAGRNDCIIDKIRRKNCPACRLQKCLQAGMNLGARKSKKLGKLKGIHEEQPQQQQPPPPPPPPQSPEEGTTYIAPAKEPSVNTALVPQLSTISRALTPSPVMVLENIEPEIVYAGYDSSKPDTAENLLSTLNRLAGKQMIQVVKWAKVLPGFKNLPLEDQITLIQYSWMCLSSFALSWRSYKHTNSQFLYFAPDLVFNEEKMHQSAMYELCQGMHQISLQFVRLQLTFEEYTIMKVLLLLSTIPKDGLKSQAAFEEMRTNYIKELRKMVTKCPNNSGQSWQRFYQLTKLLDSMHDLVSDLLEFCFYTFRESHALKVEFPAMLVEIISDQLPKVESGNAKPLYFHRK
The assay can be described thus: Mineralocorticoid Receptor Binding Assay ([3H]-aldosterone). The settings on record: [3H]-aldosterone binding, human MR expressed in Sf9 cells; read-out: MR Ki. An outline of the steps: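 Receptor source: freeze-thaw lysate of baculovirus-infected Sf9 cells carrying full-length human MR, 20-25 μg protein. Incubation ~16 h at 4 °C with shaking, pH 7.5 buffer containing 30 mM sodium molybdate and 10% glycerol.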

The next assay deals with T2, glucocorticoid receptor (Homo sapiens, UniProt P04150).
T2 construct: containing 50-200 ug of A549 cell extract and 1.86 nM [^3H]-dexamethasone; host or cells: A549 human lung epithelial cells (sonicated cell extract)
T2 sequence (P04150 1-777): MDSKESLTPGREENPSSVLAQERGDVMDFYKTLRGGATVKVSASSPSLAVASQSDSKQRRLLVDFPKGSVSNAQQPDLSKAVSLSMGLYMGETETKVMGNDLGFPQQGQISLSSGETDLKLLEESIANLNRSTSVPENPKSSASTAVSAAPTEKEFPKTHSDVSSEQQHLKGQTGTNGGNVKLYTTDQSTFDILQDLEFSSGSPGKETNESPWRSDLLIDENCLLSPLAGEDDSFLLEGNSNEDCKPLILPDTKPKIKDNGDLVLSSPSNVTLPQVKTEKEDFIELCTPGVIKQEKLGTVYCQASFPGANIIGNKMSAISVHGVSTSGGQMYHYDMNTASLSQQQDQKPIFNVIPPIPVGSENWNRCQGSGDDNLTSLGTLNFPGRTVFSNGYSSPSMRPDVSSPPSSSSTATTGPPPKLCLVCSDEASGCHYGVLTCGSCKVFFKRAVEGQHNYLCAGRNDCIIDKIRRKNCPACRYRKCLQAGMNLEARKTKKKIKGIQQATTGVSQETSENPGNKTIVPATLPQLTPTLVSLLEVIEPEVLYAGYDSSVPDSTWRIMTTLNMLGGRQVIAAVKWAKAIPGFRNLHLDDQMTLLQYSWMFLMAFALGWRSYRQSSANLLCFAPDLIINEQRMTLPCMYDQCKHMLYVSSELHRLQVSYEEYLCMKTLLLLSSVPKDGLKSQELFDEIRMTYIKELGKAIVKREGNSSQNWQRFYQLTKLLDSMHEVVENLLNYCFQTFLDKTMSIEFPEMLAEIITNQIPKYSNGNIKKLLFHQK
Kind of assay: Glucocorticoid Receptor Binding Assay ([3H]-dexamethasone, A549 cell extract). The settings on record: [3H]-dexamethasone binding, read-out: GR Ki. The essentials:
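Displacement of [3H]-dexamethasone (1.86 nM) from glucocorticoid receptor in sonicated A549 lung epithelial cell extracts, 16 h at 4 °C, pH 7.2 molybdate-containing buffer. Bound radioactivity was scintillation-counted after charcoal/dextran stripping of free ligand.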

In general, Ki refers to a measure of affinity in units of concentration, obtained from inhibition or displacement. On to `Cc1c(C=C2c3ccccc3CCc3ccccc32)cccc1NS(C)(=O)=O` [Example 48, N-[3-(10,11-Dihydro-dibenzo[a,d]cyclohepten-5-ylidenemethyl)-2-methyl-phenyl]-methanesulfonamide], for which the Ki at human MR and at glucocorticoid receptor was less than 0.5 µM throughout.

Turning to `CS(=O)(=O)Nc1cc(C=C2c3ccccc3CCc3ccccc32)ccc1F` [Example 49, N-[5-(10,11-Dihydro-dibenzo[a,d]cyclohepten-5-ylidenemethyl)-2-fluoro-phenyl]-methanesulfonamide], the Ki on human MR and at glucocorticoid receptor was less than 0.5 µM throughout.

In the case of `CS(=O)(=O)Nc1cc(F)cc(C=C2c3ccccc3CCc3ccccc32)c1` [Example 50, N-[3-(10,11-Dihydro-dibenzo[a,d]cyclohepten-5-ylidenemethyl)-5-fluoro-phenyl]-methanesulfonamide], the Ki at human MR and at glucocorticoid receptor was less than 0.5 µM throughout.

In the case of `COc1ccc(OC)c(C=C2c3ccccc3CCc3ccccc32)c1` [Example 52, 5-(2,5-Dimethoxy-benzylidene)-10,11-dihydro-5H-dibenzo[a,d]cycloheptene], the Ki on human MR is less than 0.5 µM; on glucocorticoid receptor, less than 10 µM.

`Oc1cc(O)cc(C=C2c3ccccc3CCc3ccccc32)c1` [Example 54, 5-(10,11-Dihydro-dibenzo[a,d]cyclohepten-5-ylidenemethyl)-benzene-1,3-diol]: the Ki at human MR and on glucocorticoid receptor was less than 0.5 µM throughout.

For the compound `Oc1cccc(C=C2c3ccccc3CCc3ccccc32)c1` [Example 57, 3-(10,11-Dihydro-dibenzo[a,d]cyclohepten-5-ylidenemethyl)-phenol], the inhibition constant Ki at human MR and on glucocorticoid receptor was less than 0.5 µM in each case.

Regarding `FC(F)c1ccc(C=C2c3ccccc3CCc3ccccc32)cc1` [Example 73, 5-(4-Difluoromethyl-benzylidene)-10,11-dihydro-5H-dibenzo[a,d]cycloheptene], the Ki is less than 0.5 µM at human MR and less than 1 µM at glucocorticoid receptor.

On to `OCc1cccc(C=C2c3ccccc3CCc3ccccc32)c1` [Example 75, [3-(10,11-Dihydro-dibenzo[a,d]cyclohepten-5-ylidenemethyl)-phenyl]-methanol], for which the Ki on human MR and at glucocorticoid receptor was less than 0.5 µM each time.

As to `OCc1ccc(C=C2c3ccccc3CCc3ccccc32)cc1` [Example 76, [4-(10,11-Dihydro-dibenzo[a,d]cyclohepten-5-ylidenemethyl)-phenyl]-methanol], the results for the Ki on human MR and at glucocorticoid receptor were less than 1 µM and less than 0.5 µM, respectively.

On to `O/N=C/c1ccccc1C=C1c2ccccc2CCc2ccccc21` [Example 77, 2-(10,11-Dihydro-dibenzo[a,d]cyclohepten-5-ylidenemethyl)-benzaldehyde oxime], for which the Ki on human MR and on glucocorticoid receptor was less than 0.5 µM in each case.

Take `O/N=C/c1cccc(C=C2c3ccccc3CCc3ccccc32)c1` [Example 78, 3-(10,11-Dihydro-dibenzo[a,d]cyclohepten-5-ylidenemethyl)-benzaldehyde oxime]: the Ki at human MR was less than 0.5 µM; at glucocorticoid receptor, less than 1 µM.

As to `O/N=C/c1ccc(C=C2c3ccccc3CCc3ccccc32)cc1` [Example 79, 4-(10,11-Dihydro-dibenzo[a,d]cyclohepten-5-ylidenemethyl)-benzaldehyde oxime], the Ki on human MR and on glucocorticoid receptor was less than 0.5 µM in each case.

As for `N#Cc1ccc(C=C2c3ccccc3CCc3ccccc32)cc1` [Example 82, 4-(10,11-Dihydro-dibenzo[a,d]cyclohepten-5-ylidenemethyl)-benzonitrile], the Ki at human MR is less than 0.5 µM; at glucocorticoid receptor, less than 1 µM.

`NC(=O)c1cccc(C=C2c3ccccc3CCc3ccccc32)c1` [Example 84, 3-(10,11-Dihydro-dibenzo[a,d]cyclohepten-5-ylidenemethyl)-benzamide]: the Ki was less than 0.5 µM on human MR and less than 10 µM at glucocorticoid receptor.

As for `NC(=O)c1ccc(C=C2c3ccccc3CCc3ccccc32)cc1` [Example 85, 4-(10,11-Dihydro-dibenzo[a,d]cyclohepten-5-ylidenemethyl)-benzamide], the Ki at human MR and on glucocorticoid receptor was less than 0.5 µM each time.

In the case of `CS(=O)(=O)Nc1cccc(C=C2c3ccccc3CCc3ccccc32)c1` [Example 90, N-[3-(10,11-Dihydro-dibenzo[a,d]cyclohepten-5-ylidenemethyl)-phenyl]-methanesulfonamide], the Ki at human MR and at glucocorticoid receptor was less than 0.5 µM throughout.

For the compound `Cc1nc(S(=O)(=O)Nc2cccc(C=C3c4ccccc4CCc4ccccc43)c2)cn1C` [Example 96, 1,2-Dimethyl-1H-imidazole-4sulfonic acid [3-(10,11-dihydro-dibenzo[a,d]cyclohepten-5-ylidenemethyl)-phenyl]-amide], the Ki on human MR is less than 0.5 µM; on glucocorticoid receptor, less than 10 µM.

For the compound `CCCS(=O)(=O)Nc1cccc(C=C2c3ccccc3CCc3ccccc32)c1` [Example 104, Propane-1-sulfonic acid [3-(10,11-dihydro-dibenzo[a,d]cyclohepten-5-ylidenemethyl)-phenyl]-amide], the Ki on human MR and on glucocorticoid receptor was less than 0.5 µM each time.

For the compound `CCCCS(=O)(=O)Nc1cccc(C=C2c3ccccc3CCc3ccccc32)c1` [Example 105, Butane-1-sulfonic acid [3-(10,11-dihydro-dibenzo[a,d]cyclohepten-5-ylidenemethyl)-phenyl]-amide], the Ki at human MR and at glucocorticoid receptor was less than 0.5 µM throughout.

For `CCS(=O)(=O)Nc1ccc(C=C2c3ccccc3CCc3ccccc32)cc1` [Example 106, Ethanesulfonic acid [4-(10,11-dihydro-dibenzo[a,d]cyclohepten-5-ylidenemethyl)-phenyl]amide], the Ki at human MR and at glucocorticoid receptor was less than 0.5 µM throughout.

`CCCS(=O)(=O)Nc1ccc(C=C2c3ccccc3CCc3ccccc32)cc1` [Example 108, Propane-1-sulfonic acid [4-(10,11-dihydro-dibenzo[a,d]cyclohepten-5-ylidenemethyl)-phenyl]-amide]: the Ki at human MR and on glucocorticoid receptor was less than 0.5 µM each time.

For the compound `CCCCS(=O)(=O)Nc1ccc(C=C2c3ccccc3CCc3ccccc32)cc1` [Example 109, Butane-1-sulfonic acid [4-(10,11-dihydro-dibenzo[a,d]cyclohepten-5-ylidenemethyl)-phenyl]-amide], the inhibition constant Ki on human MR and at glucocorticoid receptor was less than 0.5 µM throughout.

In the case of `CC(C)CS(=O)(=O)Nc1cccc(C=C2c3ccccc3CCc3ccccc32)c1` [Example 110, 2-Methyl-propane-1-sulfonic acid [3-(10,11-dihydro-dibenzo[a,d]cyclohepten-5-ylidenemethyl)-phenyl]-amide], the Ki at human MR and at glucocorticoid receptor was less than 0.5 µM each time.
